# Assay results published in patent US20150197497A1, “SELECTIVE INHIBITORS OF HISTONE DEACETYLASE ISOFORM 6 AND METHODS THEREOF” (DANA-FARBER CANCER INSTITUTE, INC., priority 2011, published 2015).
# pEC50, pIC50: −log10 of the molar value.
# Key:
# [1] = target: T1, HDAC4 (Homo sapiens, UniProt P56524); assay: In vitro HDAC enzyme inhibition assay, HDAC4; assay type: biochemical; settings: for HDAC4/HDAC6 in vitro selectivity: ratio of IC50 for HDAC4 relative to that of HDAC6; for pIC50: recombinant full-length HDAC4, substrate MAZ1675 10 μM; for selectivity toward HDAC6 compared to HDAC4 (in words): tested in vitro
# T1 construct: Recombinant, full-length HDAC protein (BPS Biosciences) was incubated with fluorophore conjugated substrate; purchased BPS Biosciences
# T1 sequence (P56524 whole entry): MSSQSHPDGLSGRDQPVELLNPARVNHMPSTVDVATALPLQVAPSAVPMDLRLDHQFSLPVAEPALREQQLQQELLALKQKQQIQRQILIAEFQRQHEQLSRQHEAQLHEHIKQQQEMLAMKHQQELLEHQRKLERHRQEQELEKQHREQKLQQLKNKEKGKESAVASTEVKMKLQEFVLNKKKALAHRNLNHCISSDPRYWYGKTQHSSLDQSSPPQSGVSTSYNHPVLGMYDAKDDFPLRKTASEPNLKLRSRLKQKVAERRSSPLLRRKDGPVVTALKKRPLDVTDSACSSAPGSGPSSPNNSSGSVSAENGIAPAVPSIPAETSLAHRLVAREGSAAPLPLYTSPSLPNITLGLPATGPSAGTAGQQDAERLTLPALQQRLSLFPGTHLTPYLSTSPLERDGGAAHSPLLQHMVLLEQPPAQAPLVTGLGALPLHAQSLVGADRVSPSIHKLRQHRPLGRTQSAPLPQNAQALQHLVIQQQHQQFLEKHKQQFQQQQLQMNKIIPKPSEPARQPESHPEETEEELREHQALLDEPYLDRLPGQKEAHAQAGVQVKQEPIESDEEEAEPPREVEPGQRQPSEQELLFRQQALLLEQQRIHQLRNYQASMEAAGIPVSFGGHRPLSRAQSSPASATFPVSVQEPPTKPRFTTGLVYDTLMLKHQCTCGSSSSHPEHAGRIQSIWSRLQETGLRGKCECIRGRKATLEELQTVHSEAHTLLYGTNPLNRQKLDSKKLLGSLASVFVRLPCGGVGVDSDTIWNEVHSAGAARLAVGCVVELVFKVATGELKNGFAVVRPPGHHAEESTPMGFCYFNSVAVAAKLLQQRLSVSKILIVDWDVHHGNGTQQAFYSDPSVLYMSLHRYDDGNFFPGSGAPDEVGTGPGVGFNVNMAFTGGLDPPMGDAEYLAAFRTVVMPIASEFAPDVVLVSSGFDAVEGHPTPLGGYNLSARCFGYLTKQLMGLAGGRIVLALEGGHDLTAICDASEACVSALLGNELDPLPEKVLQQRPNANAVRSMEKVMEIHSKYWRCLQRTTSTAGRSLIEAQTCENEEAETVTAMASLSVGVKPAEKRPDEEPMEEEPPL
# Method: (§1) In vitro Histone Deacetylase enzyme assays were performed using Class I (isoforms: HDAC1, HDAC2, HDAC3 and HDAC8), class IIa (isoforms: HDAC4, HDAC5, HDAC7 and HDAC9) and class IIb (isoform HDAC6).
# (§2) HDAC activities were determined in vitro with an optimized homogenous assay performed in a 384-well plate. Recombinant, full-length HDAC protein (BPS Biosciences) was incubated with fluorophore conjugated substrate, MAZ1600 and MAZ1675, at Km=[S]. […] Reactions were performed in assay buffer (50 mM HEPES, 100 mM KCl, 0.001% Tween-20, 0.05% BSA, 200 μM tris(2-carboxyethyl)phosphine (TCEP), pH 7.4) and followed for fluorogenic release of 7-amino-4-methylcoumarin from substrate upon deacetylase and trypsin enzymatic activity. Fluorescence measurements were obtained every five minutes using a multilabel plate reader and plate-stacker (Envision; Perkin-Elmer). Each plate was analyzed by plate repeat, and the first derivative within the linear range was imported into analytical software (Spotfire DecisionSite and GraphPad Prism). Replicate experimental data from incubations with inhibitor were normalized to controls.
# [2] = target: T2, HDAC2 (Homo sapiens, UniProt Q92769); assay: In vitro HDAC enzyme inhibition assay, HDAC2; assay type: biochemical; settings: for HDAC2/HDAC6 in vitro selectivity: ratio of IC50 for HDAC2 relative to that of HDAC6; for pIC50: recombinant full-length HDAC2, substrate MAZ1600 22 μM
# T2 construct: Recombinant, full-length HDAC protein (BPS Biosciences) was incubated with fluorophore conjugated substrate; purchased BPS Biosciences
# T2 sequence (Q92769 whole entry): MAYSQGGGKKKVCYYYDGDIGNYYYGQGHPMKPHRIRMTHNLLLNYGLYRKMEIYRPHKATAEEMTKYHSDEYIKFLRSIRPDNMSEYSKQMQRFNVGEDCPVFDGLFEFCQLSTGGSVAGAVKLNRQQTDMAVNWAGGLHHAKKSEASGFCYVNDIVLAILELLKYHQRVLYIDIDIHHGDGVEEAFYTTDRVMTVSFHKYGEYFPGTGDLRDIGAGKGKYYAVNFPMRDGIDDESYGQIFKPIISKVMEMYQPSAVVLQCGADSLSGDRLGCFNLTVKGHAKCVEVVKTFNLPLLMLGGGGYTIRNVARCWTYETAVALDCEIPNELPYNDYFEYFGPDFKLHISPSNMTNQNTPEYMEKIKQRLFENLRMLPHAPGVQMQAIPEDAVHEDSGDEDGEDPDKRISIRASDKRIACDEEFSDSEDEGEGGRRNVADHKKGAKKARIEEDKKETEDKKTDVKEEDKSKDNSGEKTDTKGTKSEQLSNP
# Method: as §1, §2
# [3] = target: T3, HDAC7 (Homo sapiens, UniProt Q8WUI4); assay: In vitro HDAC enzyme inhibition assay, HDAC7; assay type: biochemical; settings: for HDAC7/HDAC6 in vitro selectivity: ratio of IC50 for HDAC7 relative to that of HDAC6; for pIC50: recombinant full-length HDAC7, substrate MAZ1675 22 μM
# T3 construct: Recombinant, full-length HDAC protein (BPS Biosciences) was incubated with fluorophore conjugated substrate; purchased BPS Biosciences
# T3 sequence (Q8WUI4 1-952): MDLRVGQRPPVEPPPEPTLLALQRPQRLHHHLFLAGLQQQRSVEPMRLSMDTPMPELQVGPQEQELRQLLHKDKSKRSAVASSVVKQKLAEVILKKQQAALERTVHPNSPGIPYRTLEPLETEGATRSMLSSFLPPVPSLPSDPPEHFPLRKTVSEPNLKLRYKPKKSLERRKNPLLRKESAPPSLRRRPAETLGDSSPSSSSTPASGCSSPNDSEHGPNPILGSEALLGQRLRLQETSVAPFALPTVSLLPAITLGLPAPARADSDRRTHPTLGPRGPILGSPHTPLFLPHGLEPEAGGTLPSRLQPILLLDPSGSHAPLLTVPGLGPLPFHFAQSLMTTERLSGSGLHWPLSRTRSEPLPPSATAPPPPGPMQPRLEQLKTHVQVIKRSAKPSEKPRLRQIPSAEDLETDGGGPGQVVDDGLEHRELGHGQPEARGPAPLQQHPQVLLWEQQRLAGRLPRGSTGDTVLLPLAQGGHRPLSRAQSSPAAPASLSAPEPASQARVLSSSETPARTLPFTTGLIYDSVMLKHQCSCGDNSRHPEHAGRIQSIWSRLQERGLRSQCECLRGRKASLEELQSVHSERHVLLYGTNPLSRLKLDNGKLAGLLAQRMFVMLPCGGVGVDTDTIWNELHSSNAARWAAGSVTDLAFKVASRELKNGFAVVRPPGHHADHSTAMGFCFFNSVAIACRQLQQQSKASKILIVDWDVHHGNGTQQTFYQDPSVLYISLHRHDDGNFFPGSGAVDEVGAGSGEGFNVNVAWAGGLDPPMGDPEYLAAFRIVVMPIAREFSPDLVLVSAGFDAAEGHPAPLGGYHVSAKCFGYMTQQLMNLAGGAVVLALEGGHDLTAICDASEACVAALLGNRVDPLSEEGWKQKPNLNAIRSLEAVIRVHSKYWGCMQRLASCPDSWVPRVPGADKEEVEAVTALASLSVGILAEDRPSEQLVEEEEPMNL
# Method: as §1, §2
# [4] = system: acetylated histones; assay: High-content image analysis of induction of acetylated histones in A549 cells; settings: Homo sapiens, A549, 8 h, read-out: EC50 for half-maximal induction of acetylated histones (AcHistone)
# Method: Cells were treated with each test HDACi compound with an automated pin transfer instrument (Janus, Perkin Elmer) and incubated for 8 hours. […] Fixation solution was aspirated and 90 μL of washing solution (0.1% Triton X-100 in PBS) was added prior to 10 minute incubation at 4° C. Washing solution was aspirated and cells were incubated at 4° C. for about 1 hour in blocking solution (0.1% Triton X-100+2% BSA in PBS). Washing solution was aspirated, and cells were incubated for about 1 hour at 4° C. in primary antibody for acetylated-tubulin (Sigma T7451) and acetylated-histone (Cell Signaling #9441L) at a 1:1000 dilution in blocking solution. Primary antibody solution was aspirated, and cells were washed three times in 90 μL of washing solution. […] Secondary antibody and nuclear staining solution was aspirated and cells were washed three times in 90 μL of washing solution. After the third wash, 50 μL of PBS was added to each well. Image acquisition was done on a high content imaging microscope (ImageXpress Micro, Molecular Devices), and image analysis (MetaXpress, Molecular Devices) was performed to obtain average acetylated-tubulin and acetylated-histone signal per cell based on treatment. Replicate experimental data from incubations with inhibitor were normalized to DMSO controls.
# [5] = target: T4, HDAC6 (Homo sapiens, UniProt Q9UBN7); assay: In vitro HDAC enzyme inhibition assay, HDAC6; assay type: biochemical; settings: recombinant full-length HDAC6, substrate MAZ1600 9 μM
# T4 construct: Recombinant, full-length HDAC protein (BPS Biosciences) was incubated with fluorophore conjugated substrate; purchased BPS Biosciences
# T4 sequence (Q9UBN7 1-1215): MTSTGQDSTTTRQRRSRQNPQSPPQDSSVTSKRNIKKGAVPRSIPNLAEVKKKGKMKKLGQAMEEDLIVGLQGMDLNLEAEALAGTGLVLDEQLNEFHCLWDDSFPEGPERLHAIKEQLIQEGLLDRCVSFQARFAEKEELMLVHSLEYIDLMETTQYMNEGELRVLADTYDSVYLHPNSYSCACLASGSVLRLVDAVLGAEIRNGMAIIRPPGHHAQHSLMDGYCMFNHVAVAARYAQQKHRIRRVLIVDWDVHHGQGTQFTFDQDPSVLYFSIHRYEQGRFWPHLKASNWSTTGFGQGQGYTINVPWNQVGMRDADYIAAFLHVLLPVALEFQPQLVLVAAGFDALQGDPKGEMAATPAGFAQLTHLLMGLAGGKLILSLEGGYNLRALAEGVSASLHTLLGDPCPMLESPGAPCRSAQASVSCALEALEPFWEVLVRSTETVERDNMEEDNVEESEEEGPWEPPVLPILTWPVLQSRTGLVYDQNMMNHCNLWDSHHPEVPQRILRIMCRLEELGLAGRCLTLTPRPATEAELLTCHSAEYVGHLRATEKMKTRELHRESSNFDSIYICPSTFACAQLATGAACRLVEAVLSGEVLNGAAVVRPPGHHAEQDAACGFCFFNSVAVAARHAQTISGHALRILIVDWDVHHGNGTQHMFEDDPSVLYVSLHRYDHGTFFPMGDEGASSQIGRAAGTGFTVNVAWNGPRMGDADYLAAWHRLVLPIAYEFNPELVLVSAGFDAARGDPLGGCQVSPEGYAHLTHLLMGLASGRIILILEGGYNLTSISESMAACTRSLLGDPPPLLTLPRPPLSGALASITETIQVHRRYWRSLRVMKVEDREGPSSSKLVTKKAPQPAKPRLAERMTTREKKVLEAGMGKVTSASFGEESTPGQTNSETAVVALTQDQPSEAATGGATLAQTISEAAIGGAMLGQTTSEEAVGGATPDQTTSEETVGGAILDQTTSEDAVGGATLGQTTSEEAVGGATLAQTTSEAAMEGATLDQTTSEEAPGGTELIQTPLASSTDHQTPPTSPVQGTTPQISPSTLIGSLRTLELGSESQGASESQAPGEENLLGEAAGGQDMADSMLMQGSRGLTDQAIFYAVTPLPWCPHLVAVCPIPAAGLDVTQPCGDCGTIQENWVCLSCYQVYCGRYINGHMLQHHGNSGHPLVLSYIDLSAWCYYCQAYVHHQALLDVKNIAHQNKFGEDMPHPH
# In short: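 Deacetylase activity of full-length recombinant HDAC assessed via trypsin-coupled AMC release from substrate at Km concentration, pH 7.4 buffer with TCEP. Kinetic fluorescence slopes were normalized to controls.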
HDAC4/HDAC6 in vitro selectivity [1],pIC50 [1],HDAC2/HDAC6 in vitro selectivity [2],pIC50 [2],HDAC7/HDAC6 in vitro selectivity [3],pIC50 [3],pEC50 [4],pIC50 [5],Compound,selectivity toward HDAC6 compared to HDAC4 (in words) [1]
81082,5.67,10108,6.58,21126,6.26,5.82,10.58,"O=C(NO)c1ccc(Cn2nnc3cc(F)ccc32)cc1 [C3, 4-((5-fluoro-1H-benzo[d][1,2,3]triazol-1-yl)methyl)-N-hydroxybenzamide]","exceptionally high selectivity (Inhibitors with in vitro selectivity values for HDAC6 of at least 30,000 are considered to have exceptionally high selectivity toward HDAC6)"
34808,5.72,2562,6.85,7608,6.38,5.22,10.26,"O=C(NO)c1ccc(Cn2nnc3cc(Cl)ccc32)cc1 [C4, 4-((5-chloro-1H-benzo[d][1,2,3]triazol-1-yl)methyl)-N-hydroxybenzamide]","exceptionally high selectivity (Inhibitors with in vitro selectivity values for HDAC6 of at least 30,000 are considered to have exceptionally high selectivity toward HDAC6)"
60319,5.81,3277,7.07,11817,6.52,5.64,10.59,"O=C(NO)c1ccc(Cn2nnc3cc(Br)ccc32)cc1 [C5, 4-((5-bromo-1H-benzo[d][1,2,3]triazol-1-yl)methyl)-N-hydroxybenzamide]","exceptionally high selectivity (Inhibitors with in vitro selectivity values for HDAC6 of at least 30,000 are considered to have exceptionally high selectivity toward HDAC6)"
